According to the supplement of paper PMC10627819:

How the values were obtained:
S. pneumoniae D39V [1] = test: fitness (endpoint OD595 vs no drug) (fraction); higher = more growth
Outline: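 Fitness expresses the optical density reached at the stationary-phase transition as a fraction of the robust mean of no-drug control wells. It is capped at 1. Measurements were OD595 every 30 min for 14 h at 37 °C after inoculation of 384-well plates at OD595 0.01 (30 µl, or 55 µl for S. pneumoniae), minus the first reading.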

S. aureus DSM 20231 = test: Bliss interaction score (quartile over a dose matrix) (fitness difference); higher = more antagonism (negative = synergy)
Outline: (§1)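 Fitness here means normalised growth, inferred for single drugs from the combination data. Growth was OD595 at entry into stationary phase, divided by the plate's robust no-drug mean and capped at 1. The Bliss score is observed minus expected fitness, with the expectation being the product, and its quartiles span technical, biological and donor/recipient replicates.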

S. pneumoniae D39V [2] = test: as above
Outline: as §1

S. aureus Newman = test: as above
Outline: as §1

B. subtilis 168 = test: as above
Outline: as §1
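Wherever Bliss interaction score (quartile over a dose matrix) is given: first quartile when negative (synergy) and third quartile when positive (antagonism).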
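Wherever fitness (endpoint OD595 vs no drug) is given: OD595 on entry to stationary phase over no-drug wells; at most 1.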

COc1cccc2c1C(=O)c1c(O)c3c(c(O)c1C2=O)C[C@@](O)(C(=O)CO)C[C@@H]3O[C@H]1C[C@H](N)[C@H](O)[C@H](C)O1 [Doxorubicin] + Clc1ccc(COC(Cn2ccnc2)c2ccc(Cl)cc2Cl)c(Cl)c1 [Miconazole]
fitness, S. pneumoniae D39V [1]
Details | partner 1.073 µg/mL | partner 1.25 µg/mL | partner 2.145 µg/mL | partner 2.5 µg/mL | partner 4.29 µg/mL | partner 5 µg/mL
first compound 0.25 µg/mL | 0.953 | 0.921 | 0.921 | 0.949 | 0.646 | 0.947
first compound 0.5 µg/mL | 0.967 | 0.967 | 0.978 | 0.966 | 0.848 | 0.983
first compound 1 µg/mL | 0.961 | 0.845 | 0.914 | 0.901 | 0.791 | 0.921

Details | Bliss interaction score
B. subtilis 168 | 0.0755
S. aureus DSM 20231 | -0.0766
S. aureus Newman | -0.074
S. pneumoniae D39V [2] | 0.0804

O=C(O)c1cn(C2CC2)c2cc(N3CCNCC3)c(F)cc2c1=O [Ciprofloxacin] + Clc1ccc(COC(Cn2ccnc2)c2ccc(Cl)cc2Cl)c(Cl)c1 [Miconazole]
fitness, S. pneumoniae D39V [1]
Details | partner 1.073 µg/mL | partner 1.25 µg/mL | partner 2.145 µg/mL | partner 2.5 µg/mL | partner 4.29 µg/mL | partner 5 µg/mL
first compound 0.125 µg/mL | 0.987 | 0.939 | 0.966 | 0.925 | 0.926 | 0.908
first compound 0.25 µg/mL | 0.964 | – | 0.965 | – | 0.864 | –
first compound 0.5 µg/mL | 0.761 | 0.679 | 0.76 | – | 0.821 | 0.646

S. pneumoniae D39V [1], first compound 0.25 µg/mL, one replicate
Details | fitness
partner 1.25 µg/mL | 0.821
partner 2.5 µg/mL | 0.697
partner 5 µg/mL | 0.721

Details | Bliss interaction score
B. subtilis 168 | -0.0762
S. aureus DSM 20231 | 0.0295
S. aureus Newman | 0.0815
S. pneumoniae D39V [2] | 0.0741

Cc1ncc([N+](=O)[O-])n1CCO [Metronidazole] + O=C1CN(/N=C/c2ccc([N+](=O)[O-])o2)C(=O)N1 [Nitrofurantoin]
fitness, S. pneumoniae D39V [1]
Details | first compound 1.073 µg/mL | first compound 1.25 µg/mL | first compound 2.145 µg/mL | first compound 2.5 µg/mL | first compound 4.29 µg/mL | first compound 5 µg/mL
partner 1.285 µg/mL | – | 0.954 | – | 0.983 | – | 0.948
partner 2 µg/mL | 0.93 | – | 0.945 | – | 0.89 | –
partner 2.57 µg/mL | – | 0.95 | – | 0.948 | – | 0.965
partner 4 µg/mL | 0.929 | – | 0.919 | – | 0.902 | –
partner 8 µg/mL | 0.774 | – | 0.805 | – | 0.751 | –

S. pneumoniae D39V [1], partner 5.14 µg/mL, one replicate
Details | fitness
first compound 1.25 µg/mL | 0.936
first compound 2.5 µg/mL | 0.973
first compound 5 µg/mL | 0.989

Details | Bliss interaction score
B. subtilis 168 | 0.0755
S. aureus DSM 20231 | 0.0482
S. aureus Newman | -0.0503
S. pneumoniae D39V [2] | 0.0483
